Data as given in article PMC8537386, “The Specificity and Broad Multitarget Properties of Ligands for the Free Fatty Acid Receptors FFA3/GPR41 and FFA2/GPR43 and the Related Hydroxycarboxylic Acid Receptor HCA2/GPR109A” (Pharmaceuticals, 2021).

Columns and labels:
FFA3/GPR41 = biological target: T1, FFA3/GPR41 (Homo sapiens, UniProt O14843); parameters: method as in PMID 32141297; conditions: described in the literature; cited from earlier work
T1 construct: host or cells: Flp-In-293
T1 sequence (O14843 1-346): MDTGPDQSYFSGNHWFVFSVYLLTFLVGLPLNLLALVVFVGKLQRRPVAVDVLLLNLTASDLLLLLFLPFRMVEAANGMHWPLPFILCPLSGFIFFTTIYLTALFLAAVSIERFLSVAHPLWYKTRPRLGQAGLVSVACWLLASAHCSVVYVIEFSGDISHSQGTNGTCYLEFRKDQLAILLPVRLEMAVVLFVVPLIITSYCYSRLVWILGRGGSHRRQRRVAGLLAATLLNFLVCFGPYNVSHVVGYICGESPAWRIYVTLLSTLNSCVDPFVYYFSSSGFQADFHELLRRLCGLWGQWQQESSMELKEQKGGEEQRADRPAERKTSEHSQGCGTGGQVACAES

TNF-α mRNA = assay: LPS-induced TNF-α gene expression in THP-1 macrophages (qRT-PCR); format: cell-based, human; conditions: niacin 50 µM; 4 h LPS; LPS-treated cells = 100%
Description: (§1) The human THP-1 monocyte cell line was obtained from ATCC (American Type Culture Collection). […] The THP-1 monocytes were stimulated to differentiate into macrophages with phorbol 12-myristate 13-acetate (PMA) (50 ng/mL) for 24 h. The medium was exchanged for PMA-free medium for 48 h before the cells were used for experiments.
(§2) The total RNA was isolated from THP-1 cells using TRIzol reagent, according to the manufacturer’s protocol. First-strand cDNA was synthesized from 2 µg of RNA using oligo(dT) primers with RevertAid H Minus kit (Thermo Fisher Scientific, USA). The qRT-PCR procedure was performed using ABsolute Blue QPCR SYBR Green Master Mix reagent (Thermo Fisher Scientific, USA) with a ViiA7 real-time PCR detection system (Applied Biosystems, USA). The primer pairs that were employed for HCA2/GPR109A were forward 5′-[…]-3′ and reverse 5′-[…]-3′; for FFA2/GPR43 were forward 5′-[…]-3′ and reverse 5′-[…]-3′; for FFA3/GPR41 were forward 5′-[…]-3′ and reverse 5′-[…]-3′; for IL-6 were forward 5′-[…]-3′ and reverse 5′-[…]-3′; for MCP-1 were forward 5′-[…]-3′ and reverse 5′-[…]-3′; for TNF-α were forward 5′-[…]-3′ and reverse 5′-[…]-3′; for RPS29 were forward 5′-[…]-3′ and reverse 5′- […]-3′. The mRNA levels were quantified and normalized to the levels of the reference gene RPS29 using the 2^−ΔΔCt method and presented as relative expression compared to the values for untreated cells.

FFA2/GPR43 mRNA = assay: FFA2/GPR43 gene expression in LPS-stimulated THP-1 macrophages (qRT-PCR); format: cell-based, human; conditions: niacin 50 µM; 4 h LPS 1 µg/mL
Description: as §1, §2

FFA3/GPR41 mRNA = assay: FFA3/GPR41 gene expression in LPS-stimulated THP-1 macrophages (qRT-PCR); format: cell-based, human; conditions: niacin 50 µM; 4 h LPS 1 µg/mL
Description: as §1, §2

MCP-1 mRNA = assay: LPS-induced MCP-1 gene expression in THP-1 macrophages (qRT-PCR); format: cell-based, human; conditions: niacin 50 µM; 4 h LPS; LPS-treated cells = 100%
Description: as §1, §2

Row | Compound | activity in the cAMP assay (in words) (FFA3/GPR41) | downregulation of LPS-induced TNF-α mRNA (TNF-α mRNA) [%] | LPS-stimulated FFA2/GPR43 gene expression (FFA2/GPR43 mRNA) | LPS-stimulated FFA3/GPR41 gene expression (FFA3/GPR41 mRNA) | downregulation of LPS-induced MCP-1 mRNA (MCP-1 mRNA) [%]
1 | 4-i-butylhexahydroquinoline methyl ester [compound 28] | no activity |  |  |  | 
2 | O=C(O)c1cccnc1 [niacin, reference compound] |  | 32 ± 3 | did not affect | did not affect | 29 ± 1
